The values below come from US11008344B2, “Tricyclic heteroaryl compounds as STING activators” (Incyte Corporation, priority 2018, dated 2021).

The structures appear in SMILES notation. Bounds are passed on as bounds.

The test concerns IRF3. The experiment in a line: IRF3 activation assay in THP-1 Dual Cells (QUANTI-Blue reporter). The test is classed as cell-based. To be noted: Homo sapiens, THP1-Dual, 24 hours incubation, absorbance at 620-655 nm. Here is the method:
THP-1 Dual Cells (Invivogen) were maintained in RPMI1640 medium with addition of 10% FBS, 100 μg/mL zeocin, 10 μg/mL blasticidin. Cells were added in a 96-well flat bottom assay plate at 100,000 per well in 100 μL complete RPMI medium. Test compounds were prepared by serial dilution in complete RPMI medium and 100 μL test compounds were transferred to each corresponding well. The assay plate was incubated at 37° C., 5% CO2 for 24 hours. After the overnight incubation, 20 μL of the culture supernatants were collected, followed by addition of 180 μL of QUANTI-Blue (Invivogen) to assess IRF3 activity. The amount of IRF3 activation was assessed by reading the absorbance at 620-655 nm with a microplate reader 2 hours later. The culture supernatant from the untreated THP-1 cells was used as the negative control. To determine the NF-κB activation, another 20 μL of culture supernatant were transferred to a 96-well white plate, followed by addition of 50 μL of Quanti-Luc™ assay solution (Invivogen). The amount of NF-κB activation induced by the test compounds were determined by the luminescence above the untreated control. EC50 determination was performed by fitting the curve of percent control activity versus the log of the compound concentration using the GraphPad Prism 6.0 software.

`CCn1nc(C)cc1-c1ncc2c3cc(C(N)=O)cc(OC)c3n(C/C=C/Cn3c4nc(-c5cc(C)nn5CC)ncc4c4cc(C(N)=O)cc(OC)c43)c2n1` [Example 1, (E)-9,9′-(but-2-ene-1,4-diyl)bis(2-(1-ethyl-3-methyl-1H-pyrazol-5-yl)-8-methoxy-9H-pyrimido[4,5-b]indole-6-carboxamide)]: the concentration giving a half-maximal response (EC50) (in general, the midpoint of the concentration-response curve) was ≤ 100 nM.
With `CCn1nc(C)cc1-c1ncc2c3cc(C(N)=O)cc(OCCCO)c3n(C/C=C/Cn3c4nc(-c5cc(C)nn5CC)ncc4c4cc(C(N)=O)cc(OCCCO)c43)c2n1` [Example 2, (E)-9,9′-(but-2-ene-1,4-diyl)bis(2-(1-ethyl-3-methyl-1H-pyrazol-5-yl)-8-(3-hydroxypropoxy)-9H-pyrimido[4,5-b]indole-6-carboxamide)], the EC50 was ≤ 100 nM.
